The structures appear in SMILES notation. ≈ marks a conversion by molar mass, not a printed value. Read-outs that look alike come from different tables or passages of the source.

Data on three compounds can be found in publication PMC11110727, “Exploiting thiol-functionalized benzosiloxaboroles for achieving diverse substitution patterns – synthesis, characterization and biological evaluation of promising antibacterial agents” (RSC Medicinal Chemistry, 2024).

The subject of data set [1] is Staphylococcus aureus, MSSA and MRSA strains. Kind of data set: Antibacterial activity against S. aureus strains (text summaries). The format is cell-based. The conditions noted are these: for Eagle effect (paradoxical growth) during MBC determination: S. aureus ATCC 6538P and five MRSA clinical strains; for MIC: Staphylococcus aureus. The procedure: (§1) Direct antimicrobial activity was determined against the following standard strains: (1) Gram-positive cocci: methicillin-sensitive Staphylococcus aureus ATCC 6538P (MSSA), methicillin-resistant S. aureus subsp. aureus ATCC 43300 (MRSA), S. epidermidis ATCC 12228, Enterococcus faecium ATCC 6057, E. faecalis ATCC 29212, Bacillus subtilis ATCC 6633; (2) Gram-negative bacteria from Enterobacteriales order: Klebsiella pneumoniae ATCC 13883, Escherichia coli ATCC 25922, Enterobacter cloacae DSM 6234, Proteus mirabilis ATCC 12453, Serratia marcescens ATCC 13880; (3) Gram-negative non-fermentative rods: Acinetobacter baumannii ATCC 19606, Pseudomonas aeruginosa ATCC 27853, Stenotrophomonas maltophilia ATCC 12714, S. maltophilia ATCC 13637, Burkholderia cepacia ATCC 25416, Bordetella bronchiseptica ATCC 4617; (4) yeasts: Candida albicans ATCC 90028, C. krusei ATCC 6258, C. parapsilosis ATCC 22019, C. tropicalis (Castellani) Berkhout ATCC 750, C. tropicalis IBA 171, C. guilliermondii IBA 155, and Saccharomyces cerevisiae ATCC 9763. Moreover, 5 clinical strains of methicillin-resistant S. aureus were also included: NMI 664 K, NMI 1576 K, NMI 1712 K, NMI 1991 K, and NMI 2541 K. All strains were stored at −80 °C. Prior to testing, each bacterial strain was subcultured twice on tryptic soy agar TSA (bioMerieux) medium and yeast strains on Sabouraud dextrose agar (bioMerieux) for 24–48 h at 30 °C to ensure viability. The antimicrobial activity was evaluated as previously described[26] by the disc-diffusion method and the MIC determination assays according to the EUCAST (ref. [71] and [72]) and CLSI (ref. [53] and [73]) recommendations. Assessment of bactericidal (MBC) and fungicidal (MFC) activities was performed according to the CLSI recommendations.[54,74] The following reference agents were used: fluconazole (in the case of fungi), linezolid (for Gram-positive bacteria), and nitrofurantoin (for Gram-negative rods). The new benzosiloxaboroles were dissolved in DMSO (Sigma).

Data set [2] in a line: physchem. The procedure: 0.1 M NaOH in H2O/MeOH (1 : 1 v/v).
The acidity constants of benzosiloxaboroles 1e, 2e, 6, 20 and 22–24 were determined by standard pH titration with 0.05 M aq. NaOH. The measurements were performed using a thermostated (25.0 °C) glass vessel equipped with a magnetic stirrer and a 10 mL burette. Prior to the measurement, the pH glass electrode was calibrated using borax and phosphate buffers. A solution of the analyzed compound (ca. 20–40 mg) in a mixture of MeOH/H2O (v/v 1 : 1, 30 mL) was titrated until the pH of the solution exceeded the value of 12.0.

The subject of data set [3] is S. aureus NMI 1712 K MRSA. Kind of data set: Antibacterial activity against clinical MRSA: MIC/MBC. It counts as cell-based. The conditions noted are these: Staphylococcus aureus, NMI 1712 K MRSA; for MIC: read-out: MIC. The method in brief:
(§2)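 Antimicrobial susceptibility was assessed by agar disc diffusion and MIC assays per EUCAST and CLSI standards. Minimum bactericidal and fungicidal concentrations were established according to CLSI.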

In data set [4] the test system is S. aureus NMI 1991 K MRSA. The data set is described as above. It counts as cell-based. The conditions noted are these: Staphylococcus aureus, NMI 1991 K MRSA; for MIC: read-out: MIC. The method in brief: as §2
Data set [5] has as its system S. aureus NMI 2541 K MRSA. The description is as above. The format is cell-based. The conditions noted are these: Staphylococcus aureus, NMI 2541 K MRSA; for MIC: read-out: MIC. The gist of the method:
as §2

The test system of data set [6] is S. aureus NMI 1576 K MRSA. The description is as above. It counts as cell-based. The conditions noted are these: Staphylococcus aureus, NMI 1576 K MRSA; for MIC: read-out: MIC. The method in brief:
as §2

The subject of data set [7] is Gram-negative rods. The data set is described as follows: Antibacterial activity against Gram-negative rods with or without PAβN (text summaries). It counts as cell-based. The conditions noted are these: Gram-negative rods. The procedure: as §1, with “The following reference agents were used: fluconazole (in the case of fungi), linezolid (for Gram-positive bacteria), and nitrofurantoin (for Gram-negative rods).” left out
Considering that the MDR efflux pumps often contribute to Gram-negative rod resistance, the MIC values of studied agents, with or without the pump inhibitor, PAβN (20 μg mL^−1) (Sigma), were determined.[75] The MIC was determined using Mueller–Hinton II broth medium (MHB) (Becton Dickinson) by the broth microdilution method, according to the CLSI guideliness.[53] To minimize the influence of PAβN on the destabilization of bacterial cell covers, the tests were conducted in the presence of 1 mM MgSO4 (Sigma).[76] At least a 4-fold reduction in the MIC value after the addition of PAβN was considered significant.[56,77]

[8] abbreviates: both MSSA and MRSA strains, read-out: MIC values against Staphylococcus aureus.
Setting [9] is: read-out: MBC (first MBC where Eagle effect).
The mark [10] stands for this setting: read-out: second MBC (Eagle effect).
Setting [11] is: standard and five clinical MRSA strains (Table 4), read-out: MIC (MRSA).

Take `C[Si]1(C)OB(O)c2cc(F)c(SCCC#N)c(F)c21` [Compound 6, 3-((5,7-Difluoro-3-hydroxy-1,1-dimethyl-1,3-dihydrobenzo[c][1,2,5]oxasilaborol-6-yl)thio)propanenitrile]: the “Eagle effect (paradoxical growth) during MBC determination” value in data set [1] is “Eagle effect”. In addition, the minimum inhibitory concentration (MIC) in data set [1] (setting [8]) was 1.56 to 12.5 µg/mL (≈ 5.21 to 41.8 µM); in data set [3], 12.5 µg/mL (≈ 41.8 µM); in data set [4], 12.5 µg/mL (≈ 41.8 µM); in data set [5], 12.5 µg/mL (≈ 41.8 µM); in data set [6], 12.5 µg/mL (≈ 41.8 µM). The pKa in data set [2] amounted to 5.2. Also, the MBC was 12.5 µg/mL (≈ 41.8 µM) in data set [3] (setting [9]); more than 400 µg/mL in data set [3] (setting [10]); 25 µg/mL (≈ 83.6 µM) in data set [4] (setting [9]); more than 400 µg/mL in data set [4] (setting [10]); 25 µg/mL (≈ 83.6 µM) in data set [5] (setting [9]); more than 400 µg/mL in data set [5] (setting [10]). For the same compound, the minimal bactericidal concentration (MBC) in data set [6] (setting [9]) is 25 µg/mL (≈ 83.6 µM); in data set [6] (setting [10]) it was more than 400 µg/mL.

On to `C[Si]1(C)OB(O)c2cc(F)c(SCCS(=O)(=O)c3ccccc3)c(F)c21` [Compound 20, 5,7-Difluoro-1,1-dimethyl-6-((2-(phenylsulfonyl)ethyl)thio)benzo[c][1,2,5]oxasilaborol-3(1H)-ol], for which the “Eagle effect (paradoxical growth) during MBC determination” value in data set [1] was “Eagle effect”. For the same compound, the minimal inhibitory concentration (MIC) in data set [1] (setting [8]) is 1.56 to 12.5 µg/mL (≈ 3.77 to 30.2 µM); in data set [1] (setting [11]), 3.12 to 6.25 µg/mL (≈ 7.53 to 15.1 µM); in data set [3], 6.25 µg/mL (≈ 15.1 µM); in data set [4], 6.25 µg/mL (≈ 15.1 µM); in data set [5] it was 6.25 µg/mL (≈ 15.1 µM); in data set [6], 6.25 µg/mL (≈ 15.1 µM). The “efflux assay result (MIC with PAβN)” value in data set [7] was “actively extruded from bacterial cells”. In data set [2] (MeOH/H2O (1:1 v/v) solution), this compound gave a pKa of 5.7. Besides, the MBC was found to be 12.5 µg/mL (≈ 30.2 µM) in data set [3] (setting [9]); 400 µg/mL (≈ 965 µM) in data set [3] (setting [10]); 12.5 µg/mL (≈ 30.2 µM) in data set [4] (setting [9]); 400 µg/mL (≈ 965 µM) in data set [4] (setting [10]); 25 µg/mL (≈ 60.3 µM) in data set [5] (setting [9]); 400 µg/mL (≈ 965 µM) in data set [5] (setting [10]). Moreover, the MBC in data set [6] (setting [9]) worked out at 12.5 µg/mL (≈ 30.2 µM); in data set [6] (setting [10]), 400 µg/mL (≈ 965 µM).

For the compound `CC(=O)CSc1ccc2c(c1F)[Si](C)(C)OB2O` [Compound 22, 1-((7-Fluoro-3-hydroxy-1,1-dimethyl-1,3-dihydrobenzo[c][1,2,5]oxasilaborol-6-yl)thio)propan-2-one], the MIC is 1.56 to 12.5 µg/mL (≈ 5.49 to 44 µM) in data set [1] (setting [8]); 3.12 to 6.25 µg/mL (≈ 11 to 22 µM) in data set [1] (setting [11]); 6.25 µg/mL (≈ 22 µM) in data set [3]; 3.12 µg/mL (≈ 11 µM) in data set [4]; 3.12 µg/mL (≈ 11 µM) in data set [5]; 6.25 µg/mL (≈ 22 µM) in data set [6]. Further, the pKa in data set [2] was 6.4. The MBC stood at 400 µg/mL (≈ 1410 µM) in data set [3] (setting [9]), 200 µg/mL (≈ 704 µM) in data set [4] (setting [9]), 200 µg/mL (≈ 704 µM) in data set [5] (setting [9]) and 200 µg/mL (≈ 704 µM) in data set [6] (setting [9]).
